The source of these data is patent US12679878B2, “CRF2 receptor agonists and their use in therapy” (SANOFI, priority 2020, dated 2026).

Read-outs that look alike come from different tables or passages of the source. Starred links: 1 amine or outer side, 2 acyl side, 3 side chain; linkers in the order of their positions; H or OH if unused. Non-standard residues stand in square brackets, D forms with d. Residues, ends and D or L forms follow the SMILES beside them. Groups on a side chain read outwards from the residue. *: point of attachment. C18 diacid = O=C(O)CCCCCCCCCCCCCCCCC(=O)*; γGlu = O=C(O)[C@H](CCC(=O)[*:2])N[*:1]; AEEA = NCCOCCOCC(=O)O; Aib = CC(C)(N)C(=O)O

The target in the experiment is T1, human CRF2α receptor (Homo sapiens, UniProt Q13324).
T1 construct: expressed in transfected cells; host or cells: TeloHEAC
T1 sequence (Q13324 1-411): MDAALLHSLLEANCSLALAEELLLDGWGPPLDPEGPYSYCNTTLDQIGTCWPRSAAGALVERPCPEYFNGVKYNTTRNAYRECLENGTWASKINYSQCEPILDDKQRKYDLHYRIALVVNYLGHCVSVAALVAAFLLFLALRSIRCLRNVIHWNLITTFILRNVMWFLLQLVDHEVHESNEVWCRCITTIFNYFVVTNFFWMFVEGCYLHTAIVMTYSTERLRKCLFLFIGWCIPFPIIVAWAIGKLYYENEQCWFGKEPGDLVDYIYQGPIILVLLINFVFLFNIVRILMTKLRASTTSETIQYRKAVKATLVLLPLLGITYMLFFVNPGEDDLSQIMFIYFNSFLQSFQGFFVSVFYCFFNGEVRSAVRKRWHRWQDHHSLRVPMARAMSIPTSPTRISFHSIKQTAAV
In words: cAMP agonism at human CRF2 α receptor in TeloHEAC cells (Example 7). Type of experiment: cell-based. The settings on record: cAMP HTRF, TeloHEAC cells stably expressing human CRF2 α. The essentials: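 Steps: thaw and wash cells; suspend in 1×HBSS, 20 mM HEPES, 0 or 0.1% HSA, 2 mM IBMX; add compound, 30 min RT; lyse with HTRF reagents, 1 h; read 665/620 nm. EC50 calculated, E% versus 1000 nM UCN2.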

[1] abbreviates: 0% HSA, read-out: EC50 [nM], 0% HSA.
The mark [2] stands for this setting: 0.1% HSA, read-out: EC50 [nM], 0.1% HSA.

In the case of `CC[C@H](C)[C@H](N)C(=O)N[C@H](C(=O)N[C@@H](CC(C)C)C(=O)N[C@@H](CO)C(=O)N[C@@H](CC(C)C)C(=O)N[C@@H](CC(=O)O)C(=O)N[C@H](C(=O)N1CCC[C@H]1C(=O)N[C@H](C(=O)N[C@@H](CCCCN)C(=O)N[C@@H](CC(C)C)C(=O)N[C@@H](CCCCNC(=O)COCCOCCNC(=O)COCCOCCNC(=O)CC[C@H](NC(=O)CCCCCCCCCCCCCCCCC(=O)O)C(=O)O)C(=O)N[C@@H](CCC(N)=O)C(=O)N[C@H](C(=O)N[C@@H](CC(C)C)C(=O)N[C@@H](CC(C)C)C(=O)N[C@@H](CCC(=O)O)C(=O)N[C@@H](CCC(N)=O)C(=O)N[C@@H](CCC(=O)O)C(=O)N[C@@H](CCCNC(=N)N)C(=O)N[C@@H](CCC(N)=O)C(=O)N[C@@H](CCCCN)C(=O)N[C@@H](CCCCN)C(=O)N[C@@H](CCC(N)=O)C(=O)N[C@@H](CCCNC(=N)N)C(=O)N[C@@H](CCC(=O)O)C(=O)N[C@@H](CCC(N)=O)C(=O)N[C@@H](C)C(=O)N[C@@H](CCC(=O)O)C(=O)N[C@H](C(=O)N[C@@H](CC(N)=O)C(=O)NC(C)(C)C(=O)N[C@@H](CCC(N)=O)C(=O)N[C@H](C(=O)N[C@@H](CC(C)C)C(=O)N[C@@H](CCC(=O)O)C(=O)N[C@@H](CCCNC(=N)N)C(=O)N[C@H](C(N)=O)C(C)C)[C@@H](C)CC)[C@@H](C)O)[C@@H](C)CC)[C@@H](C)CC)C(C)C)C(C)C` [compound 74] (H-IVLSLDVPIKLK([AEEA-AEEA-γGlu-C18 diacid])QILLEQERQKKQREQAETN[Aib]QILERV-NH2), the EC50 under setting [1] was 2.12 nM.
Still for that read-out and setting: under `CC[C@H](C)[C@H](N)C(=O)N[C@H](C(=O)N[C@@H](CC(C)C)C(=O)N[C@@H](CO)C(=O)N[C@@H](CC(C)C)C(=O)N[C@@H](CC(=O)O)C(=O)N[C@H](C(=O)N1CCC[C@H]1C(=O)N[C@H](C(=O)NCC(=O)N[C@@H](CC(C)C)C(=O)N[C@@H](CCCCNC(=O)COCCOCCNC(=O)COCCOCCNC(=O)CC[C@H](NC(=O)CCCCCCCCCCCCCCCCC(=O)O)C(=O)O)C(=O)N[C@@H](CCC(N)=O)C(=O)N[C@H](C(=O)N[C@@H](CC(C)C)C(=O)N[C@@H](CC(C)C)C(=O)N[C@@H](CCC(=O)O)C(=O)N[C@@H](CCC(N)=O)C(=O)N[C@@H](CCC(=O)O)C(=O)N[C@@H](CCCNC(=N)N)C(=O)N[C@@H](CCC(N)=O)C(=O)N[C@@H](CCCCN)C(=O)N[C@@H](CCCCN)C(=O)N[C@@H](CCC(N)=O)C(=O)N[C@@H](CCCNC(=N)N)C(=O)N[C@@H](CCC(N)=O)C(=O)N[C@@H](CCC(N)=O)C(=O)N[C@@H](C)C(=O)N[C@@H](CCC(=O)O)C(=O)N[C@H](C(=O)N[C@@H](CC(N)=O)C(=O)NC(C)(C)C(=O)N[C@@H](CCC(N)=O)C(=O)N[C@H](C(=O)N[C@@H](CC(C)C)C(=O)N[C@@H](C)C(=O)N[C@@H](CCC(N)=O)C(=O)N[C@H](C(N)=O)C(C)C)[C@@H](C)CC)[C@@H](C)O)[C@@H](C)CC)[C@@H](C)CC)C(C)C)C(C)C` [compound 76] (H-IVLSLDVPIGLK([AEEA-AEEA-γGlu-C18 diacid])QILLEQERQKKQRQQAETN[Aib]QILAQV-NH2) stands 13.4 nM; under `CC[C@H](C)[C@H](N)C(=O)N[C@H](C(=O)N[C@@H](CC(C)C)C(=O)N[C@@H](CO)C(=O)N[C@@H](CC(C)C)C(=O)N[C@@H](CC(=O)O)C(=O)N[C@H](C(=O)N1CCC[C@H]1C(=O)N[C@H](C(=O)N[C@@H](CCCCN)C(=O)N[C@@H](CC(C)C)C(=O)N[C@@H](CCCCNC(=O)COCCOCCNC(=O)COCCOCCNC(=O)CC[C@H](NC(=O)CCCCCCCCCCCCCCCCC(=O)O)C(=O)O)C(=O)N[C@@H](CCC(N)=O)C(=O)N[C@H](C(=O)N[C@@H](CC(C)C)C(=O)N[C@@H](CC(C)C)C(=O)N[C@@H](CCC(=O)O)C(=O)N[C@@H](CCC(N)=O)C(=O)N[C@@H](CCC(=O)O)C(=O)N[C@@H](CCCNC(=N)N)C(=O)N[C@@H](CCC(N)=O)C(=O)N[C@@H](CCCCN)C(=O)N[C@@H](CCCCN)C(=O)N[C@@H](CCC(N)=O)C(=O)N[C@@H](CCCNC(=N)N)C(=O)N[C@@H](CCC(=O)O)C(=O)N[C@@H](CCC(N)=O)C(=O)N[C@@H](C)C(=O)N[C@@H](CCC(=O)O)C(=O)N[C@H](C(=O)N[C@@H](CC(N)=O)C(=O)NC(C)(C)C(=O)N[C@@H](CCC(N)=O)C(=O)N[C@H](C(=O)N[C@@H](CC(C)C)C(=O)N[C@@H](C)C(=O)N[C@@H](CCC(N)=O)C(=O)N[C@H](C(N)=O)C(C)C)[C@@H](C)CC)[C@@H](C)O)[C@@H](C)CC)[C@@H](C)O)C(C)C)C(C)C` [compound 78] (H-IVLSLDVPTKLK([AEEA-AEEA-γGlu-C18 diacid])QILLEQERQKKQREQAETN[Aib]QILAQV-NH2), 10.6 nM.
Still for that read-out and setting: under `CC[C@H](C)[C@H](N)C(=O)N[C@H](C(=O)N[C@@H](CC(C)C)C(=O)N[C@@H](CO)C(=O)N[C@@H](CC(C)C)C(=O)N[C@@H](CC(=O)O)C(=O)N[C@H](C(=O)N1CCC[C@H]1C(=O)N[C@H](C(=O)N[C@@H](CCCCN)C(=O)N[C@@H](CC(C)C)C(=O)N[C@@H](CCCCNC(=O)COCCOCCNC(=O)COCCOCCNC(=O)CC[C@H](NC(=O)CCCCCCCCCCCCCCCCC(=O)O)C(=O)O)C(=O)N[C@@H](CCC(N)=O)C(=O)N[C@H](C(=O)N[C@@H](CC(C)C)C(=O)N[C@@H](CC(C)C)C(=O)N[C@@H](CCCCN)C(=O)N[C@@H](CCC(N)=O)C(=O)N[C@@H](CCC(=O)O)C(=O)N[C@@H](CCCNC(=N)N)C(=O)N[C@@H](CCC(N)=O)C(=O)N[C@@H](CCCCN)C(=O)N[C@@H](CCCCN)C(=O)NC(C)(C)C(=O)N[C@@H](CCCNC(=N)N)C(=O)N[C@@H](CCC(=O)O)C(=O)N[C@@H](CCC(N)=O)C(=O)N[C@@H](C)C(=O)N[C@@H](CCC(=O)O)C(=O)N[C@H](C(=O)N[C@@H](CC(N)=O)C(=O)N[C@H](C(=O)N[C@@H](CCCNC(=N)N)C(=O)N[C@H](C(=O)N[C@@H](CC(C)C)C(=O)N[C@@H](CCC(=O)O)C(=O)N[C@@H](CCCNC(=N)N)C(=O)N[C@H](C(N)=O)C(C)C)[C@@H](C)CC)C(C)C)[C@@H](C)O)[C@@H](C)CC)[C@@H](C)O)C(C)C)C(C)C` [compound 82] (H-IVLSLDVPTKLK([AEEA-AEEA-γGlu-C18 diacid])QILLKQERQKK[Aib]REQAETNVRILERV-NH2) stands 10.1 nM.
`CC[C@H](C)[C@H](N)C(=O)N[C@H](C(=O)N[C@@H](CC(C)C)C(=O)N[C@@H](CO)C(=O)N[C@@H](CC(C)C)C(=O)N[C@@H](CC(=O)O)C(=O)N[C@H](C(=O)N1CCC[C@H]1C(=O)N[C@H](C(=O)N[C@@H](CCCCN)C(=O)N[C@@H](CC(C)C)C(=O)N[C@@H](CCCCNC(=O)COCCOCCNC(=O)COCCOCCNC(=O)CC[C@H](NC(=O)CCCCCCCCCCCCCCCCC(=O)O)C(=O)O)C(=O)N[C@@H](CCC(N)=O)C(=O)N[C@@H](CCCCN)C(=O)N[C@@H](CC(C)C)C(=O)N[C@@H](CC(C)C)C(=O)N[C@@H](CCC(=O)O)C(=O)N[C@@H](CCC(N)=O)C(=O)N[C@@H](CCC(=O)O)C(=O)N[C@@H](CCCCN)C(=O)N[C@@H](CCC(N)=O)C(=O)N[C@@H](CCCCN)C(=O)N[C@@H](CCCCN)C(=O)N[C@@H](CCC(N)=O)C(=O)N[C@@H](CCCNC(=N)N)C(=O)N[C@@H](CCC(=O)O)C(=O)N[C@@H](CCC(N)=O)C(=O)N[C@@H](C)C(=O)N[C@@H](CCC(=O)O)C(=O)N[C@H](C(=O)N[C@@H](CC(N)=O)C(=O)N[C@@H](CCCCN)C(=O)N[C@@H](CCC(N)=O)C(=O)N[C@H](C(=O)N[C@@H](CC(C)C)C(=O)N[C@@H](C)C(=O)N[C@@H](CCC(N)=O)C(=O)N[C@H](C(N)=O)C(C)C)[C@@H](C)CC)[C@@H](C)O)[C@@H](C)CC)C(C)C)C(C)C` [compound 84] (H-IVLSLDVPIKLK([AEEA-AEEA-γGlu-C18 diacid])QKLLEQEKQKKQREQAETNKQILAQV-NH2; N-terminus assumed): the EC50 amounted to 1.85 nM under setting [1] and 61.7 nM under setting [2].
Taken in the same sequence, the figures for `CC[C@H](C)[C@H](N)C(=O)N[C@H](C(=O)N[C@@H](CC(C)C)C(=O)N[C@@H](CO)C(=O)N[C@@H](CC(C)C)C(=O)N[C@@H](CC(=O)O)C(=O)N[C@H](C(=O)N1CCC[C@H]1C(=O)N[C@H](C(=O)N[C@@H](CCCCN)C(=O)N[C@@H](CC(C)C)C(=O)N[C@@H](CCCCNC(=O)COCCOCCNC(=O)COCCOCCNC(=O)CC[C@H](NC(=O)CCCCCCCCCCCCCCCCC(=O)O)C(=O)O)C(=O)N[C@@H](CCC(N)=O)C(=O)N[C@H](C(=O)N[C@@H](CC(C)C)C(=O)N[C@@H](CC(C)C)C(=O)N[C@@H](CCCCN)C(=O)N[C@@H](CCC(N)=O)C(=O)N[C@@H](CCC(=O)O)C(=O)N[C@@H](CCCNC(=N)N)C(=O)N[C@@H](CCC(N)=O)C(=O)N[C@@H](CCCCN)C(=O)N[C@@H](CCCCN)C(=O)N[C@@H](CCC(N)=O)C(=O)N[C@@H](CCCNC(=N)N)C(=O)N[C@@H](CCC(=O)O)C(=O)N[C@@H](CCCCN)C(=O)N[C@@H](C)C(=O)N[C@@H](CCCCN)C(=O)N[C@H](C(=O)N[C@@H](CC(N)=O)C(=O)N[C@H](C(=O)N[C@@H](CCC(N)=O)C(=O)N[C@H](C(=O)N[C@@H](CC(C)C)C(=O)N[C@@H](C)C(=O)N[C@@H](CCC(N)=O)C(=O)N[C@H](C(N)=O)C(C)C)[C@@H](C)CC)C(C)C)[C@@H](C)O)[C@@H](C)CC)[C@@H](C)CC)C(C)C)C(C)C` [compound 90] (H-IVLSLDVPIKLK([AEEA-AEEA-γGlu-C18 diacid])QILLKQERQKKQREKAKTNVQILAQV-NH2; N-terminus assumed) were 3.91 nM and 92.6 nM.
